Test results: PubChem BioAssay (NCI)
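How tested: cells in 96-well plates exposed to compound for 48 hours at five concentrations. TGI: total growth inhibition.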

Assays:
Test in all cases: NCI-60 cell line screen, 48 h
NCI-H522 lung = test system: NCI-H522 lung
SK-MEL-5 melanoma = test system: SK-MEL-5 melanoma
BT-549 breast = test system: BT-549 breast
SR leukemia = test system: SR leukemia
HOP-92 NSCLC = test system: HOP-92 NSCLC
CCRF-CEM leukemia = test system: CCRF-CEM leukemia
DU-145 prostate = test system: DU-145 prostate
SK-MEL-28 melanoma = test system: SK-MEL-28 melanoma
UACC-62 melanoma = test system: UACC-62 melanoma
CAKI-1 renal = test system: CAKI-1 renal
MOLT-4 leukemia = test system: MOLT-4 leukemia
T-47D breast = test system: T-47D breast
EKVX NSCLC = test system: EKVX NSCLC
A498 renal = test system: A498 renal
SK-MEL-2 melanoma = test system: SK-MEL-2 melanoma
MDA-MB-231 breast = test system: MDA-MB-231 breast
MDA-N = test system: MDA-N
KM12 colon = test system: KM12 colon
ACHN renal = test system: ACHN renal
MCF7 breast = test system: MCF7 breast
IGROV1 ovarian = test system: IGROV1 ovarian
SNB-19 CNS = test system: SNB-19 CNS
MALME-3M melanoma = test system: MALME-3M melanoma
TK-10 renal = test system: TK-10 renal
HL-60(TB) leukemia = test system: HL-60(TB) leukemia
A549 NSCLC = test system: A549 NSCLC
OVCAR-8 ovarian = test system: OVCAR-8 ovarian
UO-31 renal = test system: UO-31 renal
HOP-62 NSCLC = test system: HOP-62 NSCLC
SK-OV-3 ovarian = test system: SK-OV-3 ovarian
RPMI-8226 leukemia = test system: RPMI-8226 leukemia
LOX IMVI melanoma = test system: LOX IMVI melanoma
NCI-H23 lung = test system: NCI-H23 lung
OVCAR-5 ovarian = test system: OVCAR-5 ovarian
HCC-2998 colon = test system: HCC-2998 colon
OVCAR-3 ovarian = test system: OVCAR-3 ovarian
SF-539 CNS = test system: SF-539 CNS
K-562 leukemia = test system: K-562 leukemia
COLO 205 colon = test system: COLO 205 colon
MDA-MB-435 = test system: MDA-MB-435
UACC-257 melanoma = test system: UACC-257 melanoma
NCI/ADR-RES ovarian = test system: NCI/ADR-RES ovarian
SW-620 colon = test system: SW-620 colon
SNB-75 CNS = test system: SNB-75 CNS
U251 CNS = test system: U251 CNS
HCT-116 colon = test system: HCT-116 colon
HS 578T breast = test system: HS 578T breast
HT29 colon = test system: HT29 colon
HCT-15 colon = test system: HCT-15 colon
SF-295 CNS = test system: SF-295 CNS
786-0 renal = test system: 786-0 renal
PC-3 prostate = test system: PC-3 prostate
RXF 393 renal = test system: RXF 393 renal
SF-268 CNS = test system: SF-268 CNS
M14 melanoma = test system: M14 melanoma
NCI-H460 lung = test system: NCI-H460 lung
NCI-H226 lung = test system: NCI-H226 lung
SN12C renal = test system: SN12C renal
OVCAR-4 ovarian = test system: OVCAR-4 ovarian

Measured: TGI

O=C(O)c1ccc(Nc2nc3cc(C(F)(F)F)ccc3n3cccc23)cc1
77.8 µM: UACC-62 melanoma
71.6 µM: UACC-257 melanoma
68.2 µM: HCT-116 colon
30.9 µM: HT29 colon
52.6 µM: U251 CNS
81 µM: SNB-75 CNS
49.8 µM: MDA-MB-231 breast
68.6 µM: RPMI-8226 leukemia
37 µM: COLO 205 colon
53.8 µM: NCI-H522 lung
41.6 µM: SR leukemia
30.5 µM: LOX IMVI melanoma
38.8 µM: SK-MEL-5 melanoma
70.4 µM: T-47D breast
44.6 µM: HCC-2998 colon
58.8 µM: RXF 393 renal
65.5 µM: 786-0 renal
67.7 µM: MOLT-4 leukemia | K-562 leukemia
93.5 µM: PC-3 prostate
38.7 µM: NCI-H460 lung
80.5 µM: M14 melanoma
74.6 µM: SF-539 CNS
not listed: NCI-H226 lung | SN12C renal | OVCAR-4 ovarian
> 100 µM: all other assays above

C[N+]1(CCC[N+]2(C)CC3C4C=CC(CC4)C3C2)CCOCC1 (centres undefined)
not listed: NCI-H460 lung
> 100 µM: all other assays above
